The text below walks through data of US11491245B2, “Gadolinium chelate compounds for use in magnetic resonance imaging” (BAYER PHARMA AKTIENGESELLSCHAFT, priority 2015, dated 2022).

A short description of data set [1]: Relaxivity measurements at 1.41 T. The format is physicochemical. The conditions noted are these: 1.41 T, 37° C., normalized to Gd; for r1 FBS: fetal bovine serum. The procedure: Relaxivity measurements at 1.41 T were performed using a MiniSpec mq60 spectrometer (Bruker Analytik, Karlsruhe, Germany) operating at a resonance frequency of 60 MHz and a temperature of 37° C. The T1 relaxation times were determined using the standard inversion recovery (IR) method with a fixed relaxation delay of at least 5×T1. The variable inversion time (TI) was calculated automatically by the standard software of the MiniSpec mq60 (8 steps). The T2 measurements were done by using a Carr-Purcell-Meiboom-Gill (CPMG) pulse sequence, applying a relaxation delay of at least 5×T1.
Each relaxivity measurement was performed using three different Gd concentrations (3 concentrations between 0.05 and 2 mM). The T1 and T2 relaxation times of the example compounds 1-10 were measured in different media for example in water, fetal bovine serum (FBS, Sigma, F7524) and human plasma.
Human plasma preparation: For each experiment fresh blood was taken from a volunteer using 10 mL citrate-tubes (Sarstedt S-Monovette 02.1067.001, 10 mL, Citrate). The 10 mL citrate-tubes were carefully inverted 10 times to mix blood and anticoagulant and centrifuged for 15 minutes at 1811 g at room temperature (Eppendorf, Centrifuge 5810R).
The relaxivities ri (where i=1, 2) were calculated on the basis of the measured relaxation rates Ri in water and plasma: Ri=Ri(0)+ri[CGd], where Ri(0) represent the relaxation rate of the respective solvent and CGd the concentration of the compound normalized to the Gadolinium. The Gadolinium concentrations of the investigated solutions were verified by Inductively Coupled Plasma Mass Spectroscopy (ICP-MS Agilent 7500a, Waldbronn, Germany).

Data set [2] in a line: Relaxivity measurements at 3.0 T. The class given is physicochemical. The conditions noted are these: 37° C., normalized to Gd, average ± standard deviation. The procedure:
Relaxivity measurements at 3.0 T were performed with a whole body 3.0 T MRI Scanner (Philips Intera, Philips Healthcare, Hamburg, Germany) using a knee-coil (SENSE-Knee-8, Philips Healthcare, Hamburg, Germany). The sample tubes (CryoTubetm Vials, Thermo Scientific 1.8 mL, Roskilde, Denmark) were positioned in 3 rows of 4 and 5 tubes in a plastic holder in a box filled with water. The temperature was adjusted to 37° C. For the MRI sequence, the shortest possible echo-time (TE) with 7.46 milliseconds was used. The inversion times were chosen to optimize the sequence to measure T1 values corresponding to the estimated T1 range of all relaxation times of contrast media containing solutions. The following inversion times (TIs) were applied: 50, 100, 150, 200, 300, 500, 700, 1000, 1400, 2100, 3200, and 4500 milliseconds. The sequence was run with a constant relaxation delay of 3.4 seconds after the registration of the last echo (variable TR in the range from 3450 to 7900 milliseconds). For details of the fit procedure, see Rohrer et. al. (Invest. Radiol. 2005; 40, 11: 715-724). The experimental matrix of the phantom measurement was 320×320.
The relaxivities were evaluated using three different concentrations of each compound (3 concentrations between 0.05 and 2 mM).
The T1 relaxation times of the Example compounds 1-6 were measured in water and human plasma. Human plasma preparation: For each experiment fresh blood was taken from a volunteer using 10 mL citrate-tubes (Sarstedt S-Monovette 02.1067.001, 10 mL, Citrate). The 10 mL citrate-tubes were carefully inverted 10 times to mix blood and anticoagulant and centrifuged for 15 minutes at 1811 g at room temperature (Eppendorf, Centrifuge 5810R).
The relaxivities ri (where i=1, 2) were calculated on the basis of the measured relaxation rates Ri in water and plasma: Ri=Ri(0)+ri[CGd], where Ri(0) represent the relaxation rate of the respective solvent and CGd the concentration of the compound normalized to the Gadolinium (Table 2).

The nature of another data set: Water solubility. The conditions noted are these: 10 mM Tris-HCl buffer, 20° C. The class given is physicochemical. The method, then:
The water solubility of the compounds was determined at room temperature (20° C.) in 0.5 mL buffer solution (10 mM Tris-HCl) in the microcentrifuge tubes (Eppendorf, 2.0 mL safe-lock caps). The solid compound was added stepwise to the buffer solution. The suspension was mixed using a shaker (Heidolph Reax 2000) and treated 5 min in an ultrasound bath (Bandelin, Sonorex Super RK255H) The suspension was stored at room temperature (20° C.) over night and final Gadolinium concentration was determined by inductively coupled plasma mass spectrometry (ICP-MS).

For data set [3] the following is noted: 37° C., cited from earlier work; for r1 FBS: bovine plasma.
The mark [4] stands for this setting: reference compounds (marked ^), 3.0 T, average ± standard deviation.
Where [5] appears, read: reference compounds, 1.5 T, from Rohrer et al.

Like-named read-outs stand apart in the source and are kept apart here. Some results are limits rather than exact numbers.

As for `C[C@H](C(=O)NCC(=O)NCC(CNC(=O)CNC(=O)[C@@H](C)N1CCN(CC(=O)[O-])CCN(CC(=O)[O-])CCN(CC(=O)[O-])CC1)(CNC(=O)CNC(=O)[C@@H](C)N1CCN(CC(=O)[O-])CCN(CC(=O)[O-])CCN(CC(=O)[O-])CC1)CNC(=O)CNC(=O)[C@@H](C)N1CCN(CC(=O)[O-])CCN(CC(=O)[O-])CCN(CC(=O)[O-])CC1)N1CCN(CC(=O)[O-])CCN(CC(=O)[O-])CCN(CC(=O)[O-])CC1.[Gd+3].[Gd+3].[Gd+3].[Gd+3]` [Example 3-1, Tetragadolinium {4,10-bis(carboxylatomethyl)-7-[(2R,16R)-3,6,12,15-tetraoxo-16-[4,7,10-tris(carboxylatomethyl)-1,4,7,10-tetraazacyclododecan-1-yl]-9,9-bis({[({(2R)-2-[4,7,10-tris(carboxylatomethyl)-1,4,7,10-tetraazacyclododecan-1-yl]propanoyl}amino)-acetyl]amino}methyl)-4,7,11,14-tetraazaheptadecan-2-yl]-1,4,7,10-tetraazacyclo-dodecan-1-yl}acetate], in data set [1], the r1 human plasma was found to be 10.4 L/mmol/s and the r1 water came out at 9.5 L/mmol/s. In data set [2], this compound had a r1 human plasma of 10.1 ± 0.1 L/mmol/s and a r1 water of 8.9 ± 0.2 L/mmol/s.

With `C[C@@H](C(=O)NCC(=O)NCC(CNC(=O)CNC(=O)[C@H](C)N1CCN(CC(=O)[O-])CCN(CC(=O)[O-])CCN(CC(=O)[O-])CC1)(CNC(=O)CNC(=O)[C@H](C)N1CCN(CC(=O)[O-])CCN(CC(=O)[O-])CCN(CC(=O)[O-])CC1)CNC(=O)CNC(=O)[C@H](C)N1CCN(CC(=O)[O-])CCN(CC(=O)[O-])CCN(CC(=O)[O-])CC1)N1CCN(CC(=O)[O-])CCN(CC(=O)[O-])CCN(CC(=O)[O-])CC1.[Gd+3].[Gd+3].[Gd+3].[Gd+3]` [Example 3-2, Tetragadolinium {4,10-bis(carboxylatomethyl)-7-[(2S,16S)-3,6,12,15-tetraoxo-16-[4,7,10-tris(carboxylatomethyl)-1,4,7,10-tetraazacyclododecan-1-yl]-9,9-bis({[({(2S)-2-[4,7,10-tris(carboxylatomethyl)-1,4,7,10-tetraazacyclododecan-1-yl]propanoyl}amino)acetyl]-amino}methyl)-4,7,11,14-tetraazaheptadecan-2-yl]-1,4,7,10-tetraazacyclododecan-1-yl}-acetate], in data set [1], the r1 human plasma came out at 11.4 L/mmol/s and the r1 water worked out at 9.4 L/mmol/s. In data set [2], the r1 human plasma amounted to 11.4 ± 0.2 L/mmol/s and the r1 water was determined as 9.0 ± 0.4 L/mmol/s.

Consider `CC(C(=O)NCC(=O)N1CCN(C(=O)CNC(=O)C(C)N2CCN(CC(=O)[O-])CCN(CC(=O)[O-])CCN(CC(=O)[O-])CC2)CCN(C(=O)CNC(=O)C(C)N2CCN(CC(=O)[O-])CCN(CC(=O)[O-])CCN(CC(=O)[O-])CC2)CCN(C(=O)CNC(=O)C(C)N2CCN(CC(=O)[O-])CCN(CC(=O)[O-])CCN(CC(=O)[O-])CC2)CC1)N1CCN(CC(=O)[O-])CCN(CC(=O)[O-])CCN(CC(=O)[O-])CC1.[Gd+3].[Gd+3].[Gd+3].[Gd+3]` (centres unmarked) [Example 7, Tetragadolinium 2,2′,2″,2′″,2″″,2′″″,2″″″,2′″″″,2″″″″,2′″″″″,2″″″″″,2′″″″″″-{1,4,7,10-tetra-azacyclododecane-1,4,7,10-tetrayltetrakis[(2-oxoethane-2,1-diyl)imino(1-oxopropane-1,2-diyl)-1,4,7,10-tetraazacyclododecane-10,1,4,7-tetrayl]}dodecaacetate], for which, in data set [1], the “r1 FBS” value is 11.7 L/mmol/s, the r1 human plasma worked out at 12.1 L/mmol/s and the r1 water amounted to 10.8 L/mmol/s. In the data set “Water solubility”, this compound displayed a Solubility greater than 1400 mmol Gd/L.

On to `O=C([O-])CN1CCN(CC(=O)[O-])CCN(CC(=O)NCC(CNC(=O)CN2CCN(CC(=O)[O-])CCN(CC(=O)[O-])CCN(CC(=O)[O-])CC2)(CNC(=O)CN2CCN(CC(=O)[O-])CCN(CC(=O)[O-])CCN(CC(=O)[O-])CC2)CNC(=O)CN2CCN(CC(=O)[O-])CCN(CC(=O)[O-])CCN(CC(=O)[O-])CC2)CCN(CC(=O)[O-])CC1.[Gd+3].[Gd+3].[Gd+3].[Gd+3]` [Example 10, Tetragadolinium {4,10-bis(carboxylatomethyl)-7-[2-oxo-2-({3-({[4,7,10-tris(carboxylato-methyl)-1,4,7,10-tetraazacyclododecan-1-yl]acetyl}amino)-2,2-bis[({[4,7,10-tris-(carboxylatomethyl)-1,4,7,10-tetraazacyclododecan-1-yl]acetyl}amino)methyl]propyl}-amino)ethyl]-1,4,7,10-tetraazacyclododecan-1-yl}acetate], for which, in data set [1], the “r1 FBS” value came to 9.2 L/mmol/s, the r1 human plasma was determined as 9.7 L/mmol/s and the r1 water was 7.3 L/mmol/s. Also, in the data set “Water solubility”, the Solubility is on record as greater than 800 mmol Gd/L.

Turning to `CNC[C@H](O)[C@@H](O)[C@H](O)[C@H](O)CO.CNC[C@H](O)[C@@H](O)[C@H](O)[C@H](O)CO.O=C([O-])CN(CCN(CC(=O)[O-])CC(=O)O)CCN(CC(=O)[O-])CC(=O)O.[Gd+3]` [Reference compound 2, gadopentetate dimeglumine], in data set [3] (setting [4]), the r1 human plasma was 3.7 ± 0.2 L/mmol/s and the r1 water was 3.1 ± 0.3 L/mmol/s. In addition, in data set [3] (setting [5]), the “r1 FBS” value was 4.1 L/mmol/s and the r1 water was 3.3 L/mmol/s.

As for `CCOc1ccc(CC(CN(CCN(CC(=O)[O-])CC(=O)[O-])CC(=O)[O-])N(CC(=O)[O-])CC(=O)[O-])cc1.[Gd+3].[Na+].[Na+]` (centres unmarked) [Reference compound 3, gadoxetate disodium], in data set [3] (setting [4]), the r1 human plasma was 6.2 ± 0.3 L/mmol/s and the r1 water was 4.3 ± 0.3 L/mmol/s. Moreover, in data set [3] (setting [5]), the “r1 FBS” value is 6.9 L/mmol/s and the r1 water is 4.7 L/mmol/s.

With Gadomer-17 [Reference compound 4], in data set [3] (setting [4]), the r1 human plasma was 13 ± 1 L/mmol/s and the r1 water is 13.0 ± 0.7 L/mmol/s. Further, in data set [3] (setting [5]), the “r1 FBS” value was 16 L/mmol/s and the r1 water is 17.3 L/mmol/s.

On to “Hexagadolinium 2,2′,2″,2′″,2″″,2′″″,2″″″,2′″″″,2″″″″,2′″″″″,2″″″″″,2′″″″″″,2″″″″″″, 2′″″″″″″,2″″″″″″″, 2′″″″″″″″,2″″″″″″″″,2′″″″″″″″″-{3,7,10-triazatricyclo[3.3.3.0^1,5]undecane-3,7,10-triyltris[carbonyl(3,6,11,14-tetraoxo-4,7,10,13-tetraazahexadecane-8,2,15-triyl)di-1,4,7,10-tetraazacyclododecane-10,1,4,7-tetrayl]}octadecaacetate [Example 8]”, for which, in data set [1], the “r1 FBS” value was 14.5 L/mmol/s, the r1 human plasma was found to be 14.6 L/mmol/s and the r1 water amounted to 12.5 L/mmol/s. Besides, the Solubility in “Water solubility” is greater than 1000 mmol Gd/L.
